How the values were obtained:
[1] = target: MAP kinase-activated protein kinase 3 (Homo sapiens) (UniProt Q16644); assay: Inhibition of human recombinant MAPKAPK3 at 40 nM in presence of ATP by radiometric assay relative to control
[2] = target: Serine/threonine-protein kinase SIK3 (Homo sapiens) (UniProt Q9Y2K2); assay: Inhibition of human recombinant QSK at 40 nM in presence of ATP by radiometric assay relative to control
[3] = target: Serine/threonine-protein kinase Chk2 (Homo sapiens) (UniProt O96017); assay: Inhibition of human recombinant CHK2 at 40 nM related to control ULK1
Sequence of Serine/threonine-protein kinase Chk2 (Homo sapiens) (O96017 whole entry): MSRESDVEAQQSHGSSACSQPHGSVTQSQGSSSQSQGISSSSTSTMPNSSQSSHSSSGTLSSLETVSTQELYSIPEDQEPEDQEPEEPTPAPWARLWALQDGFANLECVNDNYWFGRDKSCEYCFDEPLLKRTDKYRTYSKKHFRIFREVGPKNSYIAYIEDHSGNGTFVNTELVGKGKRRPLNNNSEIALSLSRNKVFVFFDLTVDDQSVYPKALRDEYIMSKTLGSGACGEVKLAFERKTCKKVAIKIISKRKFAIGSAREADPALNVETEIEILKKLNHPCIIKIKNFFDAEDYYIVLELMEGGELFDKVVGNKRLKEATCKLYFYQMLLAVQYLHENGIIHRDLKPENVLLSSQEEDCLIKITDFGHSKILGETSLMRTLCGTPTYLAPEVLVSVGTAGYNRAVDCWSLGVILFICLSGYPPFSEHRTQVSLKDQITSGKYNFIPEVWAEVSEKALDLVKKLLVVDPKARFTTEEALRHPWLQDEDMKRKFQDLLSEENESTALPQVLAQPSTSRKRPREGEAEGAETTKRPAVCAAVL

[4] = target: Cyclin-dependent kinase 4 (Homo sapiens) (UniProt P11802); assay: Inhibition of human recombinant CDK4 at 15 nM in presence of ATP by radiometric assay relative to control
Sequence of Cyclin-dependent kinase 4 (Homo sapiens) (P11802 whole entry): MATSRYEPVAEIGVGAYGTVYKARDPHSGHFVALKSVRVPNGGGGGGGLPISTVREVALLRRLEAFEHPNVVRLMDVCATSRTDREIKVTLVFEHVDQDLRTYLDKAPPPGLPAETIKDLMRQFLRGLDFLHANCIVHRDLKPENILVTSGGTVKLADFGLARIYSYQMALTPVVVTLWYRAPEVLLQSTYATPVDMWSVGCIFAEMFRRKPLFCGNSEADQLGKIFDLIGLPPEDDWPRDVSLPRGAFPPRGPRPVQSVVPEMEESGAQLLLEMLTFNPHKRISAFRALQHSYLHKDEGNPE

[5] = target: Protein kinase C eta type (Homo sapiens) (UniProt P24723); assay: Inhibition of human recombinant PKCH at 15 nM related to control ULK1
Sequence of Protein kinase C eta type (Homo sapiens) (P24723 whole entry): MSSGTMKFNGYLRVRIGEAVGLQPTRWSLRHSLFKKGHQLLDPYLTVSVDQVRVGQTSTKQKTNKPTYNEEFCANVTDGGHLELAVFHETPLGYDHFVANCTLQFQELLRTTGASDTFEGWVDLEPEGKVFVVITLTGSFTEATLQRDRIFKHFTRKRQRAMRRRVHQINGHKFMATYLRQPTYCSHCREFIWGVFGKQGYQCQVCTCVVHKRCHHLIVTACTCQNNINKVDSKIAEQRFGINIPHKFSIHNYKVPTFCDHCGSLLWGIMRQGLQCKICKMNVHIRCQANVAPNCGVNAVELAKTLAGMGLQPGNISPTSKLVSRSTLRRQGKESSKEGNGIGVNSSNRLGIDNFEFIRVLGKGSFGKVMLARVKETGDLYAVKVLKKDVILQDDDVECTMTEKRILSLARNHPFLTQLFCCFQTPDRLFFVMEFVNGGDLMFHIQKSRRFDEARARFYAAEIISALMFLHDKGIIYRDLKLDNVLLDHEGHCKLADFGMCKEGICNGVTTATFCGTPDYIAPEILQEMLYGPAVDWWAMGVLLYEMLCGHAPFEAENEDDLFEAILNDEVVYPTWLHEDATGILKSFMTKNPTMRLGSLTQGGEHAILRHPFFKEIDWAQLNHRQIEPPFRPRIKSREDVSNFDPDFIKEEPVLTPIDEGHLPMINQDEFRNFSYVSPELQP

[6] = target: T1, Serine/threonine-protein kinase TAO3 (Homo sapiens) (UniProt Q9H2K8); assay: Inhibition of human recombinant TAO3 at 15 nM related to control ULK1
T1 sequence (whole entry): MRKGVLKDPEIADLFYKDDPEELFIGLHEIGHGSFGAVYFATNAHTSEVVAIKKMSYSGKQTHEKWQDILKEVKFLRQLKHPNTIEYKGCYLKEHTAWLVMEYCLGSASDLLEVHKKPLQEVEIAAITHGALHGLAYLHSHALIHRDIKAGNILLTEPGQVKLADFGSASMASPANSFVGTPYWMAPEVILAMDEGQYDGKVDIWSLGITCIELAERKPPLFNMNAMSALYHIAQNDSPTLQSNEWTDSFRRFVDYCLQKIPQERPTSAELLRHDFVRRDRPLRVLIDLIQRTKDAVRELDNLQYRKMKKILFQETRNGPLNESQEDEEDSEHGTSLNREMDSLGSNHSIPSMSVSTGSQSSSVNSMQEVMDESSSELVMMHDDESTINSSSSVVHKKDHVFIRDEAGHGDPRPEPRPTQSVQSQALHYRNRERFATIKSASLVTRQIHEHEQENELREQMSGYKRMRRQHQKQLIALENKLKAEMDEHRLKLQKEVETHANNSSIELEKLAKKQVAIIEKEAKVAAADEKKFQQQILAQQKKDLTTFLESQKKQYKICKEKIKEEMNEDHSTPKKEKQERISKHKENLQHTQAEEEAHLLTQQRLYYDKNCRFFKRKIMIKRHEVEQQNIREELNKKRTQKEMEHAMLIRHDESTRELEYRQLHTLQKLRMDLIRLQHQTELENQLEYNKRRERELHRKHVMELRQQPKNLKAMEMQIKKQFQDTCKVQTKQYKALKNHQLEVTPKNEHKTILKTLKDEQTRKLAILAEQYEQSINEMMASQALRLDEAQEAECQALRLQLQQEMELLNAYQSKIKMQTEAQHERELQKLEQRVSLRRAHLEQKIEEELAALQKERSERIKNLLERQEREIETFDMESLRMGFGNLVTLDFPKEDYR

[7] = target: Protein kinase C delta type (Homo sapiens) (UniProt Q05655); assay: Inhibition of human recombinant PKCd at 500 nM in presence of ATP by radiometric assay relative to control
Sequence of Protein kinase C delta type (Homo sapiens) (Q05655 whole entry, looked up): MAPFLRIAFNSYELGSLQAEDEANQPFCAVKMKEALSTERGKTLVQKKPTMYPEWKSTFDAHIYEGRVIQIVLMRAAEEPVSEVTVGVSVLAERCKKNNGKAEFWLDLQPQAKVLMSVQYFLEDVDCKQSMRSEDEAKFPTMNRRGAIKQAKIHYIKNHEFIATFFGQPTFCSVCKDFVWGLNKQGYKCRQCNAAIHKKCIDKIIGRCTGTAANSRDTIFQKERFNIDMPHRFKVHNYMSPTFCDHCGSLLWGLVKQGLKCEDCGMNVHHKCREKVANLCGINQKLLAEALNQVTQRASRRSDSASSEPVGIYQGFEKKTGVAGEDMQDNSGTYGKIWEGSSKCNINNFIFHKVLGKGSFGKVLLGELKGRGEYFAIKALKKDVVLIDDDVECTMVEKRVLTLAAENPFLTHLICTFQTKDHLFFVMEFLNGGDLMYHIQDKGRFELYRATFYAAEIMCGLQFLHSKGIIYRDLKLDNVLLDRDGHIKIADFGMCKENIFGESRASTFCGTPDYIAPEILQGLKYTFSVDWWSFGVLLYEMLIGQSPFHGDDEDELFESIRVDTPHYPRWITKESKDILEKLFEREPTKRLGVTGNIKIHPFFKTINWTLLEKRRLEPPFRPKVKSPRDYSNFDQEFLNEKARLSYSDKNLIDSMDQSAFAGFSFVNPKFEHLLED

[8] = target: T2, Serine/threonine-protein kinase ULK3 (Homo sapiens) (UniProt Q6PHR2); assay: Inhibition of human recombinant ULK3 at 500 nM in presence of ATP by radiometric assay relative to control
T2 sequence (whole entry): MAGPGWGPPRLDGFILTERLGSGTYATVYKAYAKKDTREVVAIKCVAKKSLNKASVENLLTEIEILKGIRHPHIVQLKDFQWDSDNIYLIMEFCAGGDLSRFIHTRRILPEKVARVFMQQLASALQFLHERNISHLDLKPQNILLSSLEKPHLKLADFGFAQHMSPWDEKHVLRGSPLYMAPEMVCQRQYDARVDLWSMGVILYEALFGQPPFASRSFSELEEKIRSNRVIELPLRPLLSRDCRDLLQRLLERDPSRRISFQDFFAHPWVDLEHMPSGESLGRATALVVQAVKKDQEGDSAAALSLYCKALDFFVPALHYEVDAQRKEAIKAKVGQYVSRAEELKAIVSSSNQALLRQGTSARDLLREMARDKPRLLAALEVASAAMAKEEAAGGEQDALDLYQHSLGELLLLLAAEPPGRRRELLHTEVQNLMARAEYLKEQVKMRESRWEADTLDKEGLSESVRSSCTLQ

[9] = target: Dual specificity protein kinase CLK1 (Homo sapiens) (UniProt P49759); assay: Inhibition of human recombinant CLK1 at 500 nM related to control ULK1
Sequence of Dual specificity protein kinase CLK1 (Homo sapiens) (P49759 whole entry, looked up): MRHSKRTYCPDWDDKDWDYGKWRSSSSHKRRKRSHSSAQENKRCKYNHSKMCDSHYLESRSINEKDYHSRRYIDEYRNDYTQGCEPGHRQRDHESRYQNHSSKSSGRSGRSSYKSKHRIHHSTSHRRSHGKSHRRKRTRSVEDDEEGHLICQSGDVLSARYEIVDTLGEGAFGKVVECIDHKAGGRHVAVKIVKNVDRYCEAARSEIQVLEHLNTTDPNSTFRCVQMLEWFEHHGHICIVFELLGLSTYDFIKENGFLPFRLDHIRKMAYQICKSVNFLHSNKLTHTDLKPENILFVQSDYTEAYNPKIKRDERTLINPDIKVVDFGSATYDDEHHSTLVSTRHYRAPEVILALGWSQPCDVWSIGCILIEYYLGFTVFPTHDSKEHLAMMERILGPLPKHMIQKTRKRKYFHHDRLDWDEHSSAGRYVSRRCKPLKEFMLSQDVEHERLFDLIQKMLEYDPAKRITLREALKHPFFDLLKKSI

[10] = target: T3, Serine/threonine-protein kinase Sgk2 (Homo sapiens) (UniProt Q9HBY8); assay: Inhibition of human recombinant SGK2 at 500 nM related to control ULK1
T3 sequence (whole entry): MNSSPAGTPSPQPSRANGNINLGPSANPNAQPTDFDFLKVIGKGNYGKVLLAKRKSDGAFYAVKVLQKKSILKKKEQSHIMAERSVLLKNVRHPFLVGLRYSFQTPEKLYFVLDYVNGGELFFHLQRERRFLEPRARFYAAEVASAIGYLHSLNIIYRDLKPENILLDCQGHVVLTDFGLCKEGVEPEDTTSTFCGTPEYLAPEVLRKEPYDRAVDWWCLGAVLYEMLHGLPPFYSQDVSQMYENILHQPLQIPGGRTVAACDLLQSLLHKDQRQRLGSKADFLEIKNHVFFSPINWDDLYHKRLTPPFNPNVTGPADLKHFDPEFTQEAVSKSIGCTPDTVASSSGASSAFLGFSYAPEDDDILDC

Sequence of MAP kinase-activated protein kinase 3 (Homo sapiens) (Q16644 whole entry, looked up): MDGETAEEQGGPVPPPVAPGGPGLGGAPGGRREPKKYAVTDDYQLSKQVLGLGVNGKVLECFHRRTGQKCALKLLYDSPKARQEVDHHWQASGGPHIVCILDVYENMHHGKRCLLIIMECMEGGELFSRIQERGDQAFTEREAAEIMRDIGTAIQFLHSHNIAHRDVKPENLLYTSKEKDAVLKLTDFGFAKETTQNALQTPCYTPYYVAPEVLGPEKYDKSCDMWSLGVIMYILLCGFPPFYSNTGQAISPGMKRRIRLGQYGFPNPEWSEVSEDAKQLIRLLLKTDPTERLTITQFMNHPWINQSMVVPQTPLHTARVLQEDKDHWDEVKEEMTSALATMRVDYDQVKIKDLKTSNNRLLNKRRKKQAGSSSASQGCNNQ
Sequence of Serine/threonine-protein kinase SIK3 (Homo sapiens) (Q9Y2K2 whole entry, looked up): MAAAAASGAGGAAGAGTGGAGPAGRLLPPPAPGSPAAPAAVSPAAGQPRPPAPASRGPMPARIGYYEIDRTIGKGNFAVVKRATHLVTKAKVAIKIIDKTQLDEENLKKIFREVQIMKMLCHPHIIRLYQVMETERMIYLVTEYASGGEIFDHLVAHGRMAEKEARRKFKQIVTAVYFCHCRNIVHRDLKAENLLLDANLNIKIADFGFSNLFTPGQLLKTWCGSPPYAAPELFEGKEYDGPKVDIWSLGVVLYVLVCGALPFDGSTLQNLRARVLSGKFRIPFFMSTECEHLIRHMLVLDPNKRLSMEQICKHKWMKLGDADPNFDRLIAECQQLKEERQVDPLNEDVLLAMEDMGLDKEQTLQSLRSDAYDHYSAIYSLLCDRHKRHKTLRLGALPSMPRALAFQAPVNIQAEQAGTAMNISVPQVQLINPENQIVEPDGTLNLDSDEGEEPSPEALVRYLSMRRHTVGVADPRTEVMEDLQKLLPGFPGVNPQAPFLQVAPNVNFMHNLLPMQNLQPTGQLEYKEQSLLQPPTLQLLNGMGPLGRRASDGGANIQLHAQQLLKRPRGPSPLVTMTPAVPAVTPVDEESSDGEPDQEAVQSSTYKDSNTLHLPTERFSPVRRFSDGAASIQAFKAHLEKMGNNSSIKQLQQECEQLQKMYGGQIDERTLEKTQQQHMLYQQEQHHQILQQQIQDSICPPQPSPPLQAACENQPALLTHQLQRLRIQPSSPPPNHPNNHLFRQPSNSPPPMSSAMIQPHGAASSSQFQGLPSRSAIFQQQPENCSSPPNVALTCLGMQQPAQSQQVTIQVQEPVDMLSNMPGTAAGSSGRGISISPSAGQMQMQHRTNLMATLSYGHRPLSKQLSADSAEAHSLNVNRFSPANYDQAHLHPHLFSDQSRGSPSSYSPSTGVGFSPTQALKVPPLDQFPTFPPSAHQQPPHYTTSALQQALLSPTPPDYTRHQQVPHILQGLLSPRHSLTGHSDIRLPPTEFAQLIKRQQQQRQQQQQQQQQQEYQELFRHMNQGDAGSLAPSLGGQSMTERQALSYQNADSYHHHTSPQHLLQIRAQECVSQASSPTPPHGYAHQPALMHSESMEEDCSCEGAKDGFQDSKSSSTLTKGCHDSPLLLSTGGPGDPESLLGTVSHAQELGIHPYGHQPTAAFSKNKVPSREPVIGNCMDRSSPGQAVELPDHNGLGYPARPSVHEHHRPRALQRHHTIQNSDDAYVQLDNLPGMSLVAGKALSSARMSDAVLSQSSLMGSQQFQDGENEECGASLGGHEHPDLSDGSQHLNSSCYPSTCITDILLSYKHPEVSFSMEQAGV

`O=C(N[C@@H](C1CC1)C(F)(F)F)c1cc(-c2cnn3cc(-c4ccc(F)cc4)cnc23)cs1` gave an inhibition [1] of 0%, an inhibition [2] of 59% and a fold change (FC) [3] of 0.
`CC(C)[C@H](NC(=O)c1cc(-c2cnn3cc(-c4ccc(OCCN5CCCCC5)cc4)cnc23)cs1)C(F)(F)F` gave an inhibition [4] of 11%, a fold change (FC) [5] of 0 and a fold change (FC) [6] of 0.01.
Compound `CNC(=O)c1ccccc1Oc1nc(Nc2cc(OC)c(OC)c(OC)c2)ncc1Br` has an inhibition [7] of 3%, an inhibition [8] of 84% and a fold change (FC) [9] of 0.07. The fold change (FC) [10] was 0.23.
